Earlier results as cited in PMC9516332 (Frontiers in Oncology, 2022).
Read-outs that look alike come from different tables or passages of the source.

Legend:
Conditions in all cases: cited from earlier work
[1] = molecular target: panel of 255 wild-type kinases (Homo sapiens, UniProt Q13177)
[2] = molecular target: panel of 255 wild-type kinases (Homo sapiens, UniProt Q9HCP0)
[3] = molecular target: panel of 255 wild-type kinases (Homo sapiens, UniProt Q13555)
[4] = molecular target: panel of 255 wild-type kinases (Homo sapiens, UniProt Q96GD4)
[5] = molecular target: panel of 255 wild-type kinases (Homo sapiens, UniProt Q9UM73)
[6] = molecular target: panel of 255 wild-type kinases (Homo sapiens, UniProt P00533)
[7] = molecular target: T1, panel of 255 wild-type kinases (Homo sapiens, UniProt P54760)
T1 sequence (P54760 16-987): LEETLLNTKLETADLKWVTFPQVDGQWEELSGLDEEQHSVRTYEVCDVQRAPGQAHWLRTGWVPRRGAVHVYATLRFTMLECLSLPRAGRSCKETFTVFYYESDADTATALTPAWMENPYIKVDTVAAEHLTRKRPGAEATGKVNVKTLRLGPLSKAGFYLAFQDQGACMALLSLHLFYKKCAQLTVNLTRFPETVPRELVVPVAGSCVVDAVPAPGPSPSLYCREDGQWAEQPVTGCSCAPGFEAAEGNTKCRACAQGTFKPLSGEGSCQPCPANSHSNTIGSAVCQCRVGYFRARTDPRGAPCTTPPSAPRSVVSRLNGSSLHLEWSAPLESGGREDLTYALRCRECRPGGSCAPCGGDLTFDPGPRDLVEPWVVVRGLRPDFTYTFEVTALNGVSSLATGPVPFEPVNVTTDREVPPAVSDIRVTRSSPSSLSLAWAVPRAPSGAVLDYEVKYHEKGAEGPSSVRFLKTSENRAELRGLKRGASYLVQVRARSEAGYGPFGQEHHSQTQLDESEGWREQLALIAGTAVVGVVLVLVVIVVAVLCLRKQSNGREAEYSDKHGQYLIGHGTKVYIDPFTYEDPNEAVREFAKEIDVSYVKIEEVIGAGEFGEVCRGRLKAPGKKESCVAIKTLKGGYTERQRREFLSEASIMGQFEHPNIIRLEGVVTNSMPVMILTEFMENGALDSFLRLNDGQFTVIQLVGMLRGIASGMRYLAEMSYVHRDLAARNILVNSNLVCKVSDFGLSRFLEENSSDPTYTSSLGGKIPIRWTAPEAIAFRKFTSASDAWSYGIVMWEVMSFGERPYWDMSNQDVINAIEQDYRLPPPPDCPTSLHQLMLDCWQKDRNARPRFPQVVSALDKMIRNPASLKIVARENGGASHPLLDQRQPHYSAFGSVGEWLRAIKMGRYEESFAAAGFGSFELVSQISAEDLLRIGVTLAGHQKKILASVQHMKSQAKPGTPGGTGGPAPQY

[8] = molecular target: T2, panel of 255 wild-type kinases (Homo sapiens, UniProt P54762)
T2 sequence (P54762 18-984): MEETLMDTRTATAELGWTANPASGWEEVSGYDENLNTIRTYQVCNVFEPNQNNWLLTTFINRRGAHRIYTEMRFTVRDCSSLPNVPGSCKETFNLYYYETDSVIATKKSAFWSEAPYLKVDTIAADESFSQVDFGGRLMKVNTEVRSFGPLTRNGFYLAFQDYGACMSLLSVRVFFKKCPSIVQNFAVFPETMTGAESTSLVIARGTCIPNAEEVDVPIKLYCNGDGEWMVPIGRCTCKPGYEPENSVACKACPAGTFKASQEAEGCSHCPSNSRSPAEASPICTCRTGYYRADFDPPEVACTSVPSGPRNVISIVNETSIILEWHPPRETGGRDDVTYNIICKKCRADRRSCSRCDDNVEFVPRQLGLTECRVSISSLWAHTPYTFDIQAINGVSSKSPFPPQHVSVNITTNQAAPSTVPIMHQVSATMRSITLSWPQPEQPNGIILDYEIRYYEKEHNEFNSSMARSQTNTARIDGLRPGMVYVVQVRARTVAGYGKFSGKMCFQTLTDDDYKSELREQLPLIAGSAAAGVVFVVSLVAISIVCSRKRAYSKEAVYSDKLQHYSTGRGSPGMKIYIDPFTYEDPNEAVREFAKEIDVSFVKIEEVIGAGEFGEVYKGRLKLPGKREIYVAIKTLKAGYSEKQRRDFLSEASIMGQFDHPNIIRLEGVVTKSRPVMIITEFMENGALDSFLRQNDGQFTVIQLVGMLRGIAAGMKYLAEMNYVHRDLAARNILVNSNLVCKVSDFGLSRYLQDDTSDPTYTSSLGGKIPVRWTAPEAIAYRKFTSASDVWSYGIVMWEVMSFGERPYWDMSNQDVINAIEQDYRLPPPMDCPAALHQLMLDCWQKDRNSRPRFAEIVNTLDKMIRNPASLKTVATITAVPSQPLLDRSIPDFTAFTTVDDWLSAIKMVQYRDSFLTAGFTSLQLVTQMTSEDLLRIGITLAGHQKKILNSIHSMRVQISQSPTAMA

[9] = molecular target: panel of 255 wild-type kinases (Homo sapiens, UniProt Q13627)
[10] = PAK2, 1 µmol/L single concentration, ref DOI: 10.1158/1535-7163.MCT-18-0877
[11] = kinase CK1γ1, 1 µmol/L single concentration, ref DOI: 10.1158/1535-7163.MCT-18-0877
[12] = CaMK2γ kinase assay, 1 µmol/L single concentration, ref DOI: 10.1158/1535-7163.MCT-18-0877
[13] = AurB kinase assay, 1 µmol/L single concentration, ref DOI: 10.1158/1535-7163.MCT-18-0877
[14] = ALK kinase assay, 1 µmol/L single concentration, ref DOI: 10.1158/1535-7163.MCT-18-0877
[15] = kinase EGFR, 1 µmol/L single concentration, ref DOI: 10.1158/1535-7163.MCT-18-0877
[16] = kinase EPHB4, 1 µmol/L single concentration, ref DOI: 10.1158/1535-7163.MCT-18-0877
[17] = kinase EPHB1, 1 µmol/L single concentration, ref DOI: 10.1158/1535-7163.MCT-18-0877
[18] = kinase DYRK1A, 1 µmol/L single concentration, ref DOI: 10.1158/1535-7163.MCT-18-0877

Row | Compound | %-inhibition, PAK2 [1, 10] [%] | %-inhibition at 1 µmol/L, CK1γ1 [2, 11] [%] | %-inhibition CaMK2γ [3, 12] [%] | %-inhibition AurB [4, 13] [%] | %-inhibition ALK [5, 14] [%] | %-inhibition at 1 µmol/L, EGFR [6, 15] [%] | %-inhibition at 1 µmol/L, EPHB4 [7, 16] [%] | %-inhibition at 1 µmol/L, EPHB1 [8, 17] [%] | %-inhibition at 1 µmol/L, DYRK1A [9, 18] [%] | further results
1 | CC#CC(=O)N1CCC[C@H]1c1nc(-c2ccc(C(=O)Nc3ccccn3)cc2)c2c(N)nccn12 [acalabrutinib] | -5 | 0.334 | -1.85 | 11 | 5.27 | 19 | -1.45 | -1.4 | -4.57 | 
2 | CCc1cc2c(cc1N1CCC(N3CCOCC3)CC1)C(C)(C)c1[nH]c3cc(C#N)ccc3c1C2=O [alectinib] | -29 | -0.412 | 6 | 9 |  |  | 11 | 21 | 4 | 
3 | COc1cc(N2CCC(N3CCN(C)CC3)CC2)ccc1Nc1ncc(Cl)c(Nc2ccccc2P(C)(C)=O)n1 [brigatinib] |  |  |  |  |  |  |  |  |  | %-inhibition, PAK2 [1]: 16%; %-inhibition at 1 µmol/L, CK1γ1 [2]: 1.13%; %-inhibition CaMK2γ [3]: 96%; %-inhibition AurB [4]: 46%; %-inhibition ALK [5]: 100%; %-inhibition at 1 µmol/L, EGFR [6]: 97%; %-inhibition at 1 µmol/L, EPHB4 [7]: 9%; %-inhibition at 1 µmol/L, EPHB1 [8]: 36%; %-inhibition at 1 µmol/L, DYRK1A [9]: 38%
4 | Cc1cc(Nc2ncc(Cl)c(Nc3ccccc3S(=O)(=O)C(C)C)n2)c(OC(C)C)cc1C1CCNCC1 [ceritinib] | -4.22 | 19 | 32 | 8 | 99 |  | 3.73 | 26 | 1.13 | 
5 | O=C(c1ccc(F)c(F)c1Nc1ccc(I)cc1F)N1CC(O)([C@@H]2CCCCN2)C1 [cobimetinib] | -17 | 2.67 | -2.31 | -11 | 5 | 8 | -2.41 | 4 | -5 | 
6 | C[C@@H](Oc1cc(-c2cnn(C3CCNCC3)c2)cnc1N)c1c(Cl)ccc(F)c1Cl [crizotinib] |  |  |  |  |  |  |  |  |  | %-inhibition, PAK2 ([1]; PAK2, 1 µmol/L single concentration, ref DOI: 10.1371/journal.pone.0092146): 5%; %-inhibition at 1 µmol/L, CK1γ1 ([2]; kinase CK1γ1, 1 µmol/L single concentration, ref DOI: 10.1371/journal.pone.0092146): -3.52%; %-inhibition CaMK2γ ([3]; CaMK2γ kinase assay, 1 µmol/L single concentration, ref DOI: 10.1371/journal.pone.0092146): -10%; %-inhibition at 1 µmol/L, EPHB4 ([7]; kinase EPHB4, 1 µmol/L single concentration, ref DOI: 10.1371/journal.pone.0092146): 83%; %-inhibition at 1 µmol/L, EPHB1 ([8]; kinase EPHB1, 1 µmol/L single concentration, ref DOI: 10.1371/journal.pone.0092146): 93%; %-inhibition at 1 µmol/L, DYRK1A ([9]; kinase DYRK1A, 1 µmol/L single concentration, ref DOI: 10.1371/journal.pone.0092146): -13%
